Consider one molecule from US20030166528A1, “Antifungal compound” (priority 2000, published 2003).

Where two headings read alike, the source gives them in different places. Non-standard residues stand in square brackets, D forms with d. Residues, ends and D or L forms follow the SMILES beside them. 1Nal = N[C@@H](Cc1cccc2ccccc12)C(=O)O; 2Thi = N[C@@H](Cc1cccs1)C(=O)O; Nva = CCC[C@H](N)C(=O)O

Data set [1] deals with C. albicans SLU-1. It is filed as cell-based. Conditions: radial diffusion assay. The procedure: XMP.676 was tested for in vitro antifungal activity in radial diffusion assays against C. albicans SLU-1 generally according to Examples 2 and 3 of U.S. Pat. No. 5,858,974.
Data set [2] has as its system A. fumigatus. The data set is classed as cell-based. Conditions: on A. fumigatus, with tested concentrations of amphotericin-B and itraconazole. The procedure: (§1) In addition, checkerboard assays were used to evaluate synergy, additivity or antagonism between XMP.676 and fluconazole, amphotericin B or itraconazole. These assays were carried out on both C. albicans and A. fumigatus. Results from these experiments were used to calculate fractional inhibitory concentration (FIC) values. […] At lower concentrations of both compounds, additional synergy may be observed.

Data set [3] has as its system C. albicans. It is filed as cell-based. The following applies: on C. albicans, with fluconazole and amphotericin-B. The procedure: as §1
Data set [4] relates to C. albicans SLU-1. The data set is classed as in vivo, DBA/2 mice. The procedure: XMP.676 was tested for in vivo antifungal activity in mice with systemic C. albicans infection, as measured by effect on mortality, generally according to Example 4 of U.S. Pat. No. 5,858,974.
Briefly described, DBA/2 mice were inoculated with an IV injection of approximately 7×10^4 CFU C. albicans SLU-1. Desired doses of XMP.676 were prepared from a stock solution of 1 mg/mL XMP.676 in a 0.9% saline solution. Treatment with XMP.676, other antifungal agents or saline via either IV or IP routes was initiated immediately after fungal challenge. Subsequent treatments were administered q.o.d. through day 15. Mortality was recorded daily for 28 days.

Data set [5] relates to Aspergillus fumigatus. The data set is classed as in vivo, mice. How it is done: XMP.676 was additionally tested in cyclosporin-A (CSA) immunosuppressed mice systemically infected with about 5×10^5 CFU Aspergillus fumigatus. Specifically, mice were immunosuppressed by IP injection of 50 mg/kg CSA at day-1. CSA injections continued daily for 9 consecutive days (to day 8). On Day 0, animals received the second CSA injection immediately followed by an inoculum of A. fumigatus in a 0.25 mL volume via a lateral tail injection. Treatment with XMP.676 began one hour following fungal challenge at doses of 0.3, 1.0, 3.0 or 10.0 mg/kg IP, was repeated one day later, and then continued q.o.d. for a total of 7 treatments (Days 0, 1, 3, 5, 7, 9, 11). One group was treated with saline as a control, and another group received 1.0 mg/kg amphotericin B for comparison. Mortality was recorded for 28 days. […] XMP.676 is also be tested in the absence of immunosuppression with CSA.

The test system of data set [6] is C. albicans. It is filed as in vivo, mice. The following applies: 5 mg/kg twice daily for 14 days, intraperitoneal; preliminary test.
Data set [7] is classed as in vivo, rabbits. How it is done:
Increasing doses of various […], or via intraperitoneal injection, to determine the maximum dose of peptide that could be administered without causing observable symptoms such as respiratory distress and loss of righting reflex. […] […] When administered via rapid intravenous injection, doses of XMP.676 higher than 2.5 mg/kg were not well tolerated, but slow injection increased the well tolerated dose two-fold to 5.0 mg/kg. When administered intraperitoneally, XMP.676 was well tolerated at doses up to and including 15.0 mg/kg. […] XMP.676 was also tested in cytarabine-treated conscious rabbits (wherein 30 mg/kg cytarabine was administered intravenously daily for 5 days prior to administration of XMP.676).

Data set [8] is classed as in vitro ADME. The following applies: for half-life: 37° C., 250 μg/mL, read-out: biological half life. The procedure: XMP.676 was also tested for stability using a bioassay generally according to Example 5 of U.S. Pat. No. 5,858,974, wherein the peptide is incubated with SDB, RPMI, mouse serum or human serum for varying amounts of time and the resulting serum-treated product is tested for retention of antifungal activity against C. albicans SLU-1 in a FACScan assay as follows.
A solution of XMP.676 (0.5 mg/mL) was mixed with medium or fresh mouse serum or fresh human serum at a 1:1 ratio to make a 250 μg/mL solution. The resulting mixture was incubated at 37° C. Small sample volumes were removed from the incubation mixture at specific times and placed at −20° C.
Antifungal activity of the peptide/serum (or peptide/media) samples was tested as follows. Mid-log phase C. albicans were suspended in SDB at a concentration of about 1×10^6 CFU/ml. The suspension was aliquoted in 1 mL portions into polystyrene tubes. The peptide/serum mixture sample were thawed and 50 μL of each sample was aliquoted into each tube and incubated at 37° C. for various times. The cells were then pelleted and resuspended in a solution of 10 μg/mL propidium iodide/PBS and incubated for 5 minutes. Propidium iodide is a fluorescent exclusionary dye that is only taken up by the cell when cell death has occurred. Cells were analyzed for fluorescence on a FACScan instrument using cells treated with 70% ethanol as the control for 100% death, and untreated cells for zero death.

The conditions of data set [9]: in vivo.
The nature of data set [10]: in vivo. Conditions: DBA/2, mouse, iv, well tolerated dose.

A word on the half-life: it is the time needed for the level to fall by half in the phase considered. The MTD is the largest dose that counted as tolerated. Regarding `CCC[C@H](NC(=O)[C@H](CCC(N)=O)NC(=O)[C@@H](NC(=O)[C@H](CCC)NC(=O)[C@H](Cc1cccc2ccccc12)NC(=O)[C@H](N)CCCCN)[C@@H](C)CC)C(=O)N[C@H](C(=O)N[C@@H](Cc1cccs1)C(=O)N[C@H](CCCCN)C(=O)N[C@H](CCCCN)C(N)=O)C(C)C` [XMP.676, LysD-(Naph-1-Ala)-Norvaline-Ile-Gln-Norvaline-Val-(Thienyl-Ala)-LysD-LysD] (H-[dK][1Nal][Nva]IQ[Nva]V[2Thi][dK][dK]-NH2), the “lowest minimum inhibitory concentration (MIC) observed” value in data set [1] stood at 171 pmol. Also, the “synergy, additivity or antagonism (FIC)” value was “additivity” in [2] and “strong additivity or synergy” in data set [3]. The reduction in mortality result is “statistically significant reduction in mortality” in [4] (0.5 mg/kg IV q.o.d., p<0.001, 28 days); “reduction in mortality” in data set [4] (1.0 mg/kg IV q.o.d., p=0.019, 28 days); “statistically significant reduction in mortality” in data set [4] (2.5 mg/kg IV q.o.d., all five experiments (p=0.005, p<0.001, p<0.001, p=0.002, p=0.015)); “statistically significant reduction in mortality” in data set [4] (5 mg/kg IP q.o.d. or q.d., three of four experiments (p=0.0001, p=0.012, p=0.018)); “highly statistically significant reduction in mortality” in data set [5] (1.0 mg/kg IP q.o.d., p=0.0003, 28 days); “no reduction in mortality” in data set [5] (3.0 mg/kg IP). In [5] (10.0 mg/kg IP), the reduction in mortality entry is given as “no reduction in mortality”. Further, in data set [4] (IV, slow (approximately 20 seconds) vs rapid (less than about 5 seconds), 2.5 mg/kg in FIG. 2), the “protection, slow injection relative to rapid bolus injection” value was “greater delay in onset of death and greater protection”. In addition, the “benefit of intravenous treatment q.o.d. versus q.d. or b.i.d.” value in data set [4] (intravenous) is reported as “greater benefit”. In [6], the “reduction in mortality compared to saline control” value is recorded as “did not provide a reduction in mortality”. The adverse events entry is “did not result in any significant adverse events” in data set [7] (2.5 mg/kg IV, 30 minute single infusion) and “resulted in mortality” in data set [7] (doses higher than 2.5 mg/kg IV infusion). Besides, the “stability in microbial media” value in data set [8] (all types of microbial media examined (SDB, RPMI)) is reported as “excellent stability”. For the same molecule, the half-life in data set [8] (human serum) and in data set [8] (mouse serum) was above 3 h each time. In data set [9] (DBA/2, mouse, iv), this molecule displayed a well tolerated dose of 5.0 mg/kg. In data set [9] (mouse, ip), this molecule gave a well tolerated doses of at most 15.0 mg/kg. The MTD in [10] came to 2.5 mg/kg.
